pIC50: −log10 of the molar value. Where two headings read alike, the source gives them in different places.
Tests used:
[1] = molecular target: Human PDE10A1 (Homo sapiens, UniProt Q9Y233); test: hPDE10A1 Enzyme Inhibition ([3H]-cAMP scintillation assay); format: biochemical
Procedure: • hPDE10A1 Enzyme Activity: […] samples of serially diluted Human PDE10A1 enzyme were incubated with 50 μl of [^3H]-cAMP for 20 minutes (at 37° C.). Reactions were carried out in Greiner 96 deep well 1 ml master-block. The enzyme was diluted in 20 mM Tris HCl pH7.4 and [^3H]-cAMP was diluted in 10 mM MgCl2, 40 mM Tris.HCl pH 7.4. The reaction was terminated by denaturing the PDE enzyme (at 70° C.) after which [^3H]-5′-AMP was converted to [^3H]-adenosine by adding 25 μl snake venom nucleotidase and incubating for 10 minutes (at 37° C.). Adenosine, being neutral, was separated from charged cAMP or AMP by the addition of 200 μl Dowex resin. Samples were shaken for 20 minutes then centrifuged for 3 minutes at 2,500 r.p.m. 50 μl of supernatant was removed and added to 200 μl of MicroScint-20 in white plates (Greiner 96-well Optiplate) and shaken for 30 minutes before reading on Perkin Elmer TopCount Scintillation Counter. • hPDE10A1 Enzyme Inhibition: To check inhibition profile 11 μl of serially diluted inhibitor was added to 50 μl of [^3H]-cAMP and 50 μl of diluted Human PDE10A1 and assay was carried out as in the enzyme activity assay. Data was analysed using Prism software (GraphPad Inc).

[2] = test system: rats; conditions: cited from earlier work
[3] = Human PDE10A1, [3H]-cAMP substrate, 20 minutes at 37° C., read-out: hPDE10A1 IC50 Band

Human PDE10A1, sequence (Q9Y233 1-779 isoform Q9Y233-1): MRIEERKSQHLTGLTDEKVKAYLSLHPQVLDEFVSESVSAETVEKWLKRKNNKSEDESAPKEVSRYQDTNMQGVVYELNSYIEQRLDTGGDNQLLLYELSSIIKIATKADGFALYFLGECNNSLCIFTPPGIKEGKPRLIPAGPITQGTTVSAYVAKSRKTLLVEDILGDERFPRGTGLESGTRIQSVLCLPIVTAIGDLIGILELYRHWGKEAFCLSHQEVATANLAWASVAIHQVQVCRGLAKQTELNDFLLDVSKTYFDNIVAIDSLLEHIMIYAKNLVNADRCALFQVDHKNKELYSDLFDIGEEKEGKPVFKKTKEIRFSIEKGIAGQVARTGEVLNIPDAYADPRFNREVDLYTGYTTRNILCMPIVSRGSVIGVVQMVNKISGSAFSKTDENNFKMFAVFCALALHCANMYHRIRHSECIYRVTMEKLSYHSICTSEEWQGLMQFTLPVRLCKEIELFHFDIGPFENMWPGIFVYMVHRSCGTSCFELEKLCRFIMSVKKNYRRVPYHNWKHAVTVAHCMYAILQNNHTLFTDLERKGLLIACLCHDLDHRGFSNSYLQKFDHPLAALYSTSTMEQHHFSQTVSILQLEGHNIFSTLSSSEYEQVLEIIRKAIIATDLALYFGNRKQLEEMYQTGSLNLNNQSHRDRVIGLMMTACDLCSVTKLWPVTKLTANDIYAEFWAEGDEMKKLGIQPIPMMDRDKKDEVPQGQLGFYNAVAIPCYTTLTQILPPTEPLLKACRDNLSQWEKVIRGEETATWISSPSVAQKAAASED

With CC(C)(C)c1ccc(C2CC2C(=O)N/N=C/c2cccc3cnccc23)cc1 (stereo not shown) [Example 122, (E)-2-(4-tert-butylphenyl)-N′-(isoquinolin-5-ylmethylene) cyclopropanecarbohydrazide] the pIC50 [1] was > 6.70.

With O=C(N/N=C/c1cccc2cnccc12)C1CC1c1ccc(-c2ccccc2)cc1 (stereo not shown) [Example 196, (E)-2-(biphenyl-4-yl)-N′-(isoquinolin-5-ylmethylene)cyclopropanecarbohydrazide] the pIC50 [1, 3] was > 6.70.

In the case of C/C(=N\NC(=O)C1CC1c1ccc(C(C)(C)C)cc1)c1cccc2cnccc12 (stereo not shown) [Example 197, (E)-2-(4-tert-butylphenyl)-N′-(1-(isoquinolin-5-yl)ethylidene)cyclopropanecarbohydrazide], the pIC50 [1, 3] was > 6.00.

For CN(/N=C/c1cccc2cnccc12)C(=O)C1CC1c1ccc(C(C)(C)C)cc1 (stereo not shown) [Example 198, (E)-2-(4-tert-butylphenyl)-N′-(isoquinolin-5-ylmethylene)-N-methylcyclopropanecarbohydrazide], the pIC50 [1, 3] was > 6.70.

For COc1ccc(Cc2nccc3cc(OC)c(OC)cc23)cc1OC [papaverine], the apomorphine induced stereotypies [2] is listed as “reduces”, the haloperidol induced catalepsy [2] is listed as “increases” and the “rat brain dopamine levels” value [2] is listed as “reduces”.
